The values below are quoted from earlier work in patent US20220175741A1, “COMPOSITIONS, DEVICES AND METHODS FOR TREATING AUTISM” (priority 2017, published 2022).

The subject of data set [1] is child's autistic symptoms. Particulars: one child; Rodakis, Microbial Ecology in Health & Disease 2015.
For data set [2], the system named is children with Autism. To be noted: within a few weeks of treatment; Sandler et al, Journal of Child Neurology 2000.

For `CC1(C)S[C@@H]2[C@H](NC(=O)[C@H](N)c3ccc(O)cc3)C(=O)N2[C@H]1C(=O)O` [amoxycillin], the autistic symptoms result in data set [1] is “reversed almost completely”. Regarding `CN[C@H](CC(C)C)C(=O)N[C@H]1C(=O)N[C@@H](CC(N)=O)C(=O)N[C@H]2C(=O)N[C@H]3C(=O)N[C@H](C(=O)N[C@H](C(=O)O)c4cc(O)cc(O)c4-c4cc3ccc4O)[C@H](O)c3ccc(c(Cl)c3)Oc3cc2cc(c3O[C@@H]2O[C@H](CO)[C@@H](O)[C@H](O)[C@H]2O[C@H]2C[C@](C)(N)[C@H](O)[C@H](C)O2)Oc2ccc(cc2Cl)[C@H]1O` [vancomycin], the “behavioural changes of autistic children” value in data set [2] is “reversal of behavioural changes and progress to normality”.
